Patent publication US11926628B2 (Gilead Sciences, Inc., priority 2021, dated 2024)

Tests used:
[1] = system: Jurkat NFκB-luciferase cells; experiment: Jurkat NFκB-Luciferase Assay; assay type: cell-based; settings: Homo sapiens; Jurkat NFκB-luciferase cells activated with anti-CD3 antibody (OKT3), 2.5 hrs at 37° C.; geometric mean; read-out: DGK NFKb Luciferase EC50
In short: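 Jurkat NFκB-luciferase reporter cells stimulated on plate-bound anti-CD3 (5 ug/ml coating) with compound, 2.5 hrs at 37° C then 30 min at 25° C; luminescence read with One-Glo Ex. Normalized to DMSO (basal) and 1 micromolar compound (maximum) controls; EC50 from four-parameter fit, geometric mean across experiments.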

human DGKα = human DGKα (Homo sapiens (Human), UniProt P23743); experiment: DGKα Biochemical Activity Assay (ADP-Glo); settings: recombinant DGKα 1 nM, 100 μM ATP, 18:1 DAG/POPS/octylglucoside micelles, 1 hour at 25° C.; geometric mean; read-out: HTBS DGKa 1X ATP KM IC50
In short: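 Recombinant DGKα (1 nM final) was preincubated with compound for 15 min, then reacted for 1 h at 25 °C with 100 μM ATP and octylglucoside micelles of 0.85 mM 18:1 DAG and 6.75 mM POPS in pH 7.2 MOPS with 5 mM MgCl2. ADP formed was read by ADP-Glo luminescence. IC50 came from four-parameter fits normalized to DMSO and 50 μM CU3, and values were geometric means.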

Chain of human DGKα (P23743 whole entry): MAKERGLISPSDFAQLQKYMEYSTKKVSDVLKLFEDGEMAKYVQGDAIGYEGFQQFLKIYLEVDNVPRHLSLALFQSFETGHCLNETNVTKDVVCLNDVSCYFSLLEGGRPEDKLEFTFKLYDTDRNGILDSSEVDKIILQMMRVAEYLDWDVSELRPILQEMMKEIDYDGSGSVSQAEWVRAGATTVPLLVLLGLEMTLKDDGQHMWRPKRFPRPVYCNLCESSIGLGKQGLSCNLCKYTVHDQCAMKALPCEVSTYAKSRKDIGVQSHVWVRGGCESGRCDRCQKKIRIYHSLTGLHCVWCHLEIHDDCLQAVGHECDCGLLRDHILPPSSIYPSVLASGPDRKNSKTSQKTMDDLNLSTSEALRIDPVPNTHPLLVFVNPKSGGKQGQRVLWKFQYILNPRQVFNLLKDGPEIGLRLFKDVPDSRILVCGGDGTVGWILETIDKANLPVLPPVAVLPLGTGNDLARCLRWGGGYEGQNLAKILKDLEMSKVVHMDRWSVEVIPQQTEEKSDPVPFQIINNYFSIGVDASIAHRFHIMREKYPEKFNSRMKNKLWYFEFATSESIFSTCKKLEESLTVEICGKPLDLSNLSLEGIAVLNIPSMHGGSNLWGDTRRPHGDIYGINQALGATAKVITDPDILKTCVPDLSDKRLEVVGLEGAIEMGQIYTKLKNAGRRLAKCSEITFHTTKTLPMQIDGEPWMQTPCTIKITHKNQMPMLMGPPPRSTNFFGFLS

EC50 [1]	IC50 (human DGKα)	Structure (SMILES)
121 nM	45.2 nM	CN(c1cccc(-c2ccc(N3CCCS3(=O)=O)cc2)c1)c1nc2nncn2c2cnccc12 [Example 59, N-[3-[4-(1,1-dioxo-1,2-thiazolidin-2-yl)phenyl]phenyl]-N-methyl-2,4,5,7,12-pentazatricyclo[7.4.0.02,6]trideca-1(13),3,5,7,9,11-hexaen-8-amine]
0.543 nM	22.8 nM	CN(c1cccc(-c2ccc(C3CC3)cc2)c1)c1nc2nncn2c2cnccc12 [Example 61, N-[3-(4-cyclopropylphenyl)phenyl]-N-methyl-2,4,5,7,12-pentazatricyclo[7.4.0.02,6]trideca-1(13),3,5,7,9,11-hexaen-8-amine]
27.7 nM	159 nM	CN(c1cccc(-c2ccc(C3CC3)nc2)c1)c1nc2nncn2c2cnccc12 [Example 62, N-[3-(6-cyclopropyl-3-pyridyl)phenyl]-N-methyl-2,4,5,7,12-pentazatricyclo[7.4.0.02,6]trideca-1(13),3,5,7,9,11-hexaen-8-amine]
1.09 nM	11.6 nM	Cc1nnc2nc(N3CCCCc4c(C#CC(C)(C)C(C)(F)F)cccc43)c3c(F)cncc3n12 [Example 63, 5-(6-(4,4-difluoro-3,3-dimethylpent-1-yn-1-yl)-2,3,4,5-tetrahydro-1H-benzo[b]azepin-1-yl)-6-fluoro-1-methylpyrido[4,3-e][1,2,4]triazolo[4,3-a]pyrimidine]
0.337 nM	22.7 nM	Cc1nnc2nc(N3CCCCc4c(C#CC5(C(C)(F)F)CC5)cccc43)c3c(F)cncc3n12 [Example 65, 5-(6-((1-(1,1-difluoroethyl)cyclopropyl)ethynyl)-2,3,4,5-tetrahydro-1H-benzo[b]azepin-1-yl)-6-fluoro-1-methylpyrido[4,3-e][1,2,4]triazolo[4,3-a]pyrimidine]
1.24 nM	3.96 nM	Cc1nnc2nc(N3CCCCc4c(C#CC5(C(F)F)CC5)cccc43)c3c(F)cncc3n12 [Example 67, 5-(6-((1-(difluoromethyl)cyclopropyl)ethynyl)-2,3,4,5-tetrahydro-1H-benzo[b]azepin-1-yl)-6-fluoro-1-methylpyrido[4,3-e][1,2,4]triazolo[4,3-a]pyrimidine]
1.19 nM	7.67 nM	Cc1nnc2nc(N3CCCCc4c(C#CC5CC5)cccc43)c3c(F)cncc3n12 [Example 68, 5-(6-(cyclopropylethynyl)-2,3,4,5-tetrahydro-1H-benzo[b]azepin-1-yl)-6-fluoro-1-methylpyrido[4,3-e][1,2,4]triazolo[4,3-a]pyrimidine]
13.9 nM	220 nM	Cc1nnc2nc(N3CCCCc4c(Br)cccc43)c3c(F)cncc3n12 [Example 69, 5-(6-bromo-2,3,4,5-tetrahydro-1H-benzo[b]azepin-1-yl)-6-fluoro-1-methylpyrido[4,3-e][1,2,4]triazolo[4,3-a]pyrimidine]
2.62 nM	6.44 nM	Cc1nnc2nc(N3CCCOc4c(C#CC(C)(C)C(F)(F)F)cccc43)c3c(F)cncc3n12 [Example 70, 5-(6-fluoro-1-methylpyrido[4,3-e][1,2,4]triazolo[4,3-a]pyrimidin-5-yl)-9-(4,4,4-trifluoro-3,3-dimethylbut-1-yn-1-yl)-2,3,4,5-tetrahydrobenzo[b][1,4]oxazepine]
3.03 nM	7.4 nM	Cc1nnc2nc(N3CCCOc4c(C#CC5(C(F)(F)F)CC5)cccc43)c3c(F)cncc3n12 [Example 72, 5-(6-fluoro-1-methylpyrido[4,3-e][1,2,4]triazolo[4,3-a]pyrimidin-5-yl)-9-((1-(trifluoromethyl)cyclopropyl)ethynyl)-2,3,4,5-tetrahydrobenzo[b][1,4]oxazepine]
3.45 nM	4.17 nM	Cc1nnc2nc(N3CCCOc4c(C#CC5(C)CC5)cccc43)c3c(F)cncc3n12 [Example 73, 5-(6-fluoro-1-methylpyrido[4,3-e][1,2,4]triazolo[4,3-a]pyrimidin-5-yl)-9-((1-methylcyclopropyl)ethynyl)-2,3,4,5-tetrahydrobenzo[b][1,4]oxazepine]
3.27 nM	2.29 nM	Cc1nnc2nc(N3CCCOc4c(C#CC5CC5)cccc43)c3c(F)cncc3n12 [Example 74, 9-(cyclopropylethynyl)-5-(6-fluoro-1-methylpyrido[4,3-e][1,2,4]triazolo[4,3-a]pyrimidin-5-yl)-2,3,4,5-tetrahydrobenzo[b][1,4]oxazepine]
48.2 nM	357 nM	Cc1nnc2nc(N3CCCOc4c(Br)cccc43)c3c(F)cncc3n12 [Example 75, 9-bromo-5-(6-fluoro-1-methylpyrido[4,3-e][1,2,4]triazolo[4,3-a]pyrimidin-5-yl)-2,3,4,5-tetrahydrobenzo[b][1,4]oxazepine]
1.41 nM	6.09 nM	Cc1nnc2nc(N3CCOCc4c(C#CC(C)(C)C(F)(F)F)cccc43)c3c(F)cncc3n12 [Example 76, 1-(6-fluoro-1-methylpyrido[4,3-e][1,2,4]triazolo[4,3-a]pyrimidin-5-yl)-6-(4,4,4-trifluoro-3,3-dimethylbut-1-yn-1-yl)-1,2,3,5-tetrahydrobenzo[e][1,4]oxazepine]
1.95 nM	4.34 nM	Cc1nnc2nc(N3CCOCc4c(C#CC5(C(F)(F)F)CC5)cccc43)c3c(F)cncc3n12 [Example 78, 1-(6-fluoro-1-methylpyrido[4,3-e][1,2,4]triazolo[4,3-a]pyrimidin-5-yl)-6-((1-(trifluoromethyl)cyclopropyl)ethynyl)-1,2,3,5-tetrahydrobenzo[e][1,4]oxazepine]
2 nM	2.28 nM	Cc1nnc2nc(N3CCOCc4c(C#CC5(C)CC5)cccc43)c3c(F)cncc3n12 [Example 79, 1-(6-fluoro-1-methylpyrido[4,3-e][1,2,4]triazolo[4,3-a]pyrimidin-5-yl)-6-((1-methylcyclopropyl)ethynyl)-1,2,3,5-tetrahydrobenzo[e][1,4]oxazepine]
4.78 nM	1.68 nM	Cc1nnc2nc(N3CCOCc4c(C#CC5CC5)cccc43)c3c(F)cncc3n12 [Example 80, 6-(cyclopropylethynyl)-1-(6-fluoro-1-methylpyrido[4,3-e][1,2,4]triazolo[4,3-a]pyrimidin-5-yl)-1,2,3,5-tetrahydrobenzo[e][1,4]oxazepine]
46.7 nM	151 nM	Cc1nnc2nc(N3CCOCc4c(Br)cccc43)c3c(F)cncc3n12 [Example 81, 6-bromo-1-(6-fluoro-1-methylpyrido[4,3-e][1,2,4]triazolo[4,3-a]pyrimidin-5-yl)-1,2,3,5-tetrahydrobenzo[e][1,4]oxazepine]
1.3 nM	10.3 nM	CC1(C#Cc2cccc3c2CCCN3c2nc3nncn3c3cnccc23)CC1 [Example 82]
1.76 nM	14.2 nM	FC(F)(F)C1(C#Cc2cccc3c2CCCN3c2nc3nncn3c3cnccc23)CC1 [Example 83, 8-[5-[2-[1-(trifluoromethyl)cyclopropyl]ethynyl]-3,4-dihydro-2H-quinolin-1-yl]-2,4,5,7,12-pentazatricyclo[7.4.0.02,6]trideca-1(13),3,5,7,9,11-hexaene]
1.19 nM	10.7 nM	CC(C)(C#Cc1cccc2c1CCCN2c1nc2nncn2c2cncc(F)c12)C(F)(F)F [Example 84, 10-fluoro-8-[5-(4,4,4-trifluoro-3,3-dimethyl-but-1-ynyl)-3,4-dihydro-2H-quinolin-1-yl]-2,4,5,7,12-pentazatricyclo[7.4.0.02,6]trideca-1(13),3,5,7,9,11-hexaene]
12.7 nM	13.4 nM	CC(C)(O)C#Cc1cccc2c1CCCN2c1nc2nncn2c2cncc(F)c12 [Example 85, 4-[1-(10-fluoro-2,4,5,7,12-pentazatricyclo[7.4.0.02,6]trideca-1(13),3,5,7,9,11-hexaen-8-yl)-3,4-dihydro-2H-quinolin-5-yl]-2-methyl-but-3-yn-2-ol]
0.518 nM	3.39 nM	CC1(C#Cc2cccc3c2CCCN3c2nc3nncn3c3cncc(F)c23)CC1 [Example 86, 10-fluoro-8-[5-[2-(1-methylcyclopropyl)ethynyl]-3,4-dihydro-2H-quinolin-1-yl]-2,4,5,7,12-pentazatricyclo[7.4.0.02,6]trideca-1(13),3,5,7,9,11-hexaene]

Structure (SMILES)	EC50 [1]	IC50 (human DGKα)
Cc1nnc2nc(N3CCCCc4c(C#CC(C)(C)O)cccc43)c3c(F)cncc3n12 [Example 66, 4-(1-(6-fluoro-1-methylpyrido[4,3-e][1,2,4]triazolo[4,3-a]pyrimidin-5-yl)-2,3,4,5-tetrahydro-1H-benzo[b]azepin-6-yl)-2-methylbut-3-yn-2-ol]	15.9 nM	6.14 nM
Cc1nnc2nc(N3CCCOc4c(C#CC(C)(C)O)cccc43)c3c(F)cncc3n12 [Example 71, 4-(5-(6-fluoro-1-methylpyrido[4,3-e][1,2,4]triazolo[4,3-a]pyrimidin-5-yl)-2,3,4,5-tetrahydrobenzo[b][1,4]oxazepin-9-yl)-2-methylbut-3-yn-2-ol]	304 nM	18.5 nM
Cc1nnc2nc(N3CCOCc4c(C#CC(C)(C)O)cccc43)c3c(F)cncc3n12 [Example 77, 4-(1-(6-fluoro-1-methylpyrido[4,3-e][1,2,4]triazolo[4,3-a]pyrimidin-5-yl)-1,2,3,5-tetrahydrobenzo[e][1,4]oxazepin-6-yl)-2-methylbut-3-yn-2-ol]	130 nM	12.6 nM
